Source: ChEMBL document CHEMBL1127485, “Photoactivatable 2-(4'-azidotetrafluorophenyl)-5-tert-butyl-1,3-dithiane-bis- sulfone and related compounds as candidate irreversible probes for the GABA-gated chloride channels” (J Med Chem, 1994)

Key:
[1] = Binding affinity towards convulsant site of the GABAA receptor was determined in bovine cortical P2 membranes using [3H]TBOB as radioligand; type: cell membranes
[2] = Binding affinity for convulsant site of GABA-A receptor in bovine cortical P2 membranes using [3H]TBOB as radioligand (Unstable); type: cell membranes, Bos taurus

CC(C)(C)C1CSC(C2=CC(=O)C=CC2=[N+]=[N-])SC1 (stereo unspecified)
Ki [1]: 30 µM

CC(C)(C)C1CSC(c2ccccc2O)SC1 (stereo unspecified)
Ki [1]: 1.8 µM

CC(C)(C)C12COC(c3ccccc3)(OC1)OC2
Ki [1]: 0.018 µM

CC(C)(C)C1CSC(c2cc([N+](=O)[O-])ccc2O)SC1 (stereo unspecified)
Ki [1]: 0.56 µM

CC(C)(C)C1CS(=O)(=O)C(c2ccccc2)S(=O)(=O)C1 (stereo unspecified)
Ki [1]: 0.51 µM

CC(C)(C)C1CSC(C2=CC(=O)C(Br)=CC2=[N+]=[N-])SC1 (stereo unspecified)
Ki [1]: 3.6 µM

CC(C)(C)C1CSC(c2cc(O)c(Br)cc2[N+](=O)[O-])SC1 (stereo unspecified)
Ki [1]: 4.5 µM

CC(C)(C)C1CS(=O)(=O)C(c2ccccc2O)S(=O)(=O)C1 (stereo unspecified)
Ki [1]: 23.9 µM

CC(C)(C)C12COC(C3=CC(=O)C(Br)=CC3=[N+]=[N-])(OC1)OC2
Ki [1]: 0.6 µM

CC(C)(C)C1CSC(c2c(F)c(F)c(N=[N+]=[N-])c(F)c2F)SC1 (stereo unspecified)
Ki [2]: Unstable

CC(C)(C)C1CSC(C2=CC(=[N+]=[N-])C=CC2=O)SC1 (stereo unspecified)
Ki [1]: 14 µM

CC(C)(C)C12COC(c3ccccc3O)(OC1)OC2
Ki [1]: 0.059 µM

CC(C)(C)C1CSC(c2cc([N+](=O)[O-])cc(Br)c2O)SC1 (stereo unspecified)
Ki [1]: 0.22 µM

CC(C)(C)C1CS(=O)(=O)C(c2cc([N+](=O)[O-])cc(Br)c2O)S(=O)(=O)C1 (stereo unspecified)
Ki [1]: 0.53 µM

CC(C)(C)C1CS(=O)(=O)C(c2cc(O)ccc2[N+](=O)[O-])S(=O)(=O)C1 (stereo unspecified)
Ki [1]: 52 µM

CC(C)(C)C1CSC(c2cc(O)ccc2[N+](=O)[O-])SC1 (stereo unspecified)
Ki [1]: 8 µM

CC(C)(C)C1CSC(c2ccc(Br)cc2)SC1 (stereo unspecified)
Ki [1]: 0.28 µM

CC(C)(C)C12COC(c3ccc(Br)cc3)(OC1)OC2
Ki [1]: 0.009 µM

CC(C)(C)C1CS(=O)(=O)C(c2ccc(Br)cc2)S(=O)(=O)C1 (stereo unspecified)
Ki [1]: 0.003 µM

CC(C)(C)C1CS(=O)(=O)C(c2cc(O)c(Br)cc2[N+](=O)[O-])S(=O)(=O)C1 (stereo unspecified)
Ki [1]: > 30 µM

CC(C)(C)C1CS(=O)(=O)C(c2c(F)c(F)c(N=[N+]=[N-])c(F)c2F)S(=O)(=O)C1 (stereo unspecified)
Ki [1]: 0.18 µM

CC(C)(C)C1CS(=O)(=O)C(C2=CC(=[N+]=[N-])C=C(Br)C2=O)S(=O)(=O)C1 (stereo unspecified)
Ki [1]: > 30 µM

CC(C)(C)C1CSC(c2ccccc2)SC1 (stereo unspecified)
Ki [1]: 0.25 µM

CC(C)(C)C1CS(=O)(=O)C(c2cc([N+](=O)[O-])ccc2O)S(=O)(=O)C1 (stereo unspecified)
Ki [1]: 18 µM

CC(C)(C)C1CSC(C2=CC(=[N+]=[N-])C=C(Br)C2=O)SC1 (stereo unspecified)
Ki [1]: 2.2 µM

CC(C)(C)C1CS(=O)(=O)C(C2=CC(=[N+]=[N-])C=CC2=O)S(=O)(=O)C1 (stereo unspecified)
Ki [1]: 250 µM
